Patent publication US12474342B2, “Methods for treating cancer and the use of biomarkers as a predictor of clinical sensitivity to therapies” (CELGENE CORPORATION, priority 2016, dated 2025)
Read-outs that look alike come from different tables or passages of the source. Marks after values point to notes of the source that are not given here.

What was measured:
GSPT1 [1] = target: T1, GSPT1 (Homo sapiens, UniProt P15170+Q96SW2); assay: GSPT1 protein reduction, western analysis, HL-60; assay type: cell-based; parameters: reduction in GSPT1 protein level was evaluated in human normal PBMCs; endogenous in cells; host or cells: primary PBMCs from normal donors (ID 4328, 4379) and AML patients (ID 11SH, 09P6)
Experimental: FIG. 30C [HL-60]) and 48-hour (FIG. 30B [KG-1]; FIG. 30D [HL-60]) time points. […] The time course of the reduction in GSPT1 by Compound D also was studied for up to 48 hours. The progressive degradation of GSPT1 over the course of 1 to 20 hours was evident in the presence of all concentrations of Compound D studied from 3 to 300 nM in HNT-34, HL-60, and ML-2 cells, with little GSPT1 remaining by 20 hours at 100 or 300 nM Compound D in HNT-34 or HL-60 cells (FIG. 34 and FIG. 35C). Time-dependent reduction in GSPT1 was also observed in KG-1 and OCI-AML2 cells at 3 to 1000 nM Compound D, with little GSPT1 remaining in KG-1 cells at 100 to 300 nM at 24 hours or in OCI-AML2 cells at 300 and 1000 nM at 24 hours (FIG. 35D). Loss of GSPT1 occurred more slowly in Kasumi-1, AML-193, and […] cells. […] A positive association (r^2=0.50; […]

ATF3 = ATF3 mRNA, quantitative PCR, KG-1; assay type: cell-based, human; settings: KG-1, 100 nM Compound D or greater
Experimental: Compound D regulates UPR stress RNAs, ATF3 and CHOP, and nonsense-mediated decay (NMD) RNAs, SRSF3 and SRSF6, in KG-1 cells in both dose- and time-dependent manners. KG-1 cells were plated in 10 cm^2 dishes and incubated overnight. The following day, KG-1 cells were treated with a 6-point dose response (0, 3, 10, 30, 100, 300 nM) of Compound D and incubated for 2, 4, 8, and 20 hours. Cells were removed from dishes and cell pellets were prepared for RNA isolation (Qiagen RNA isolation kit). Total RNA was quantitated using NanoDrop spectrophotometer and cDNA was reversely transcribed using 1 μg total RNA. Quantitative PCR was performed in replicates for each sample using primer sets for ATF3, CHOP, and both NMD and normal transcripts of SRSF3 and SRSF6. Data was doubly normalized to the 18S housekeeping gene and 2 hour DMSO control. Normalized RNA expression (y-axis) versus drug concentration in nM (x-axis) for each time point was plotted. SRSF3-1 NMD and SRSF6-1 NMD depict amplification of NMD transcript for SRSF3 and SRSF6, respectively. SRSF3-3 Normal and SRSF6-3 Normal depict amplification of normal transcript for SRSF3 and SRSF6 genes, respectively. […] FIGS. 29A-29F show effects of Compound D treatment on UPR and NMD pathways in KG-1 cells. […] Additionally, 100 nM Compound D or greater induced the mRNA levels of ATF3 and DDIT3 (CHOP) approximately 100-fold and 10-fold, respectively. […]

ML-2 cells = assay: Apoptosis (caspase 3/7 activation), ML-2; assay type: cell-based, human; settings: for EC50: Homo sapiens, read-out: Compound D-induced Apoptosis EC50
GSPT1 [2] = target: T1, GSPT1; assay: GSPT1 protein reduction, western analysis, F36-P; assay type: cell-based; parameters: reduction in GSPT1 protein level was evaluated in human normal PBMCs; endogenous in cells; host or cells: primary PBMCs from normal donors (ID 4328, 4379) and AML patients (ID 11SH, 09P6)
Experimental: The time course of the reduction in GSPT1 by Compound D also was studied for up to 48 hours. The progressive degradation of GSPT1 over the course of 1 to 20 hours was evident in the presence of all concentrations of Compound D studied from 3 to 300 nM in HNT-34, HL-60, and ML-2 cells, with little GSPT1 remaining by 20 hours at 100 or 300 nM Compound D in HNT-34 or HL-60 cells (FIG. 34 and FIG. 35C). Time-dependent reduction in GSPT1 was also observed in KG-1 and OCI-AML2 cells at 3 to 1000 nM Compound D, with little GSPT1 remaining in KG-1 cells at 100 to 300 nM at 24 hours or in OCI-AML2 cells at 300 and 1000 nM at 24 hours (FIG. 35D). Loss of GSPT1 occurred more slowly in Kasumi-1, AML-193, and […] cells. […] A positive association (r^2=0.50; […]

T1 sequence (P15170 1-637 isoform P15170-3): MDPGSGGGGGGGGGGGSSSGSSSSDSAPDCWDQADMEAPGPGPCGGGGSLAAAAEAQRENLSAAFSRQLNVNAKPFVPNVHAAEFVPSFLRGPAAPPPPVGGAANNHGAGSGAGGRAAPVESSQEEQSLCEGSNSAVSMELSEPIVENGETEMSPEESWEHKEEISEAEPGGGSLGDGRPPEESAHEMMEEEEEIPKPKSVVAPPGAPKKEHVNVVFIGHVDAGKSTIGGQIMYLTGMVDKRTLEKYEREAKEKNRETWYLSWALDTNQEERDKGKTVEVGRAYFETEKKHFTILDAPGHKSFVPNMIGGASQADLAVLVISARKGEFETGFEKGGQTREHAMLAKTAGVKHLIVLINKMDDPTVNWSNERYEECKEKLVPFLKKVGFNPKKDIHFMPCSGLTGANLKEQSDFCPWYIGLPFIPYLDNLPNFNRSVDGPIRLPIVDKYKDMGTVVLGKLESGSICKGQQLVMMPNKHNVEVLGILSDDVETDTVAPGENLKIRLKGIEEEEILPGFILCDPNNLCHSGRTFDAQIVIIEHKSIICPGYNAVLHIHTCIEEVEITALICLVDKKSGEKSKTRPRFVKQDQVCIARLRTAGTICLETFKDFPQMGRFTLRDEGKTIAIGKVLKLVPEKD
T1 sequence (Q96SW2 whole entry): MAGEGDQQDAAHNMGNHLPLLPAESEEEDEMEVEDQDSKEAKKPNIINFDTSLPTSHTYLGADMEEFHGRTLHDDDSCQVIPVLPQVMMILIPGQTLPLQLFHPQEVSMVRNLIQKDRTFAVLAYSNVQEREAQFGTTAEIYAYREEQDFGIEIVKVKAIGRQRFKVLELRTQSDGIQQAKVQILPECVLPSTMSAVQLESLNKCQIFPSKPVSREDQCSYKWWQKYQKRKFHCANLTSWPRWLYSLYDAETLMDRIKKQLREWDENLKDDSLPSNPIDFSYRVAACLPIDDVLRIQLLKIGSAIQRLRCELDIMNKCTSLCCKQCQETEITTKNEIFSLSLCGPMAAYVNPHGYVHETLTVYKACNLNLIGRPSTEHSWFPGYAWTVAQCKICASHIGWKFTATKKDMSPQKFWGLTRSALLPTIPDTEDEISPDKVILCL
T1 sequence (Q16531 whole entry partner): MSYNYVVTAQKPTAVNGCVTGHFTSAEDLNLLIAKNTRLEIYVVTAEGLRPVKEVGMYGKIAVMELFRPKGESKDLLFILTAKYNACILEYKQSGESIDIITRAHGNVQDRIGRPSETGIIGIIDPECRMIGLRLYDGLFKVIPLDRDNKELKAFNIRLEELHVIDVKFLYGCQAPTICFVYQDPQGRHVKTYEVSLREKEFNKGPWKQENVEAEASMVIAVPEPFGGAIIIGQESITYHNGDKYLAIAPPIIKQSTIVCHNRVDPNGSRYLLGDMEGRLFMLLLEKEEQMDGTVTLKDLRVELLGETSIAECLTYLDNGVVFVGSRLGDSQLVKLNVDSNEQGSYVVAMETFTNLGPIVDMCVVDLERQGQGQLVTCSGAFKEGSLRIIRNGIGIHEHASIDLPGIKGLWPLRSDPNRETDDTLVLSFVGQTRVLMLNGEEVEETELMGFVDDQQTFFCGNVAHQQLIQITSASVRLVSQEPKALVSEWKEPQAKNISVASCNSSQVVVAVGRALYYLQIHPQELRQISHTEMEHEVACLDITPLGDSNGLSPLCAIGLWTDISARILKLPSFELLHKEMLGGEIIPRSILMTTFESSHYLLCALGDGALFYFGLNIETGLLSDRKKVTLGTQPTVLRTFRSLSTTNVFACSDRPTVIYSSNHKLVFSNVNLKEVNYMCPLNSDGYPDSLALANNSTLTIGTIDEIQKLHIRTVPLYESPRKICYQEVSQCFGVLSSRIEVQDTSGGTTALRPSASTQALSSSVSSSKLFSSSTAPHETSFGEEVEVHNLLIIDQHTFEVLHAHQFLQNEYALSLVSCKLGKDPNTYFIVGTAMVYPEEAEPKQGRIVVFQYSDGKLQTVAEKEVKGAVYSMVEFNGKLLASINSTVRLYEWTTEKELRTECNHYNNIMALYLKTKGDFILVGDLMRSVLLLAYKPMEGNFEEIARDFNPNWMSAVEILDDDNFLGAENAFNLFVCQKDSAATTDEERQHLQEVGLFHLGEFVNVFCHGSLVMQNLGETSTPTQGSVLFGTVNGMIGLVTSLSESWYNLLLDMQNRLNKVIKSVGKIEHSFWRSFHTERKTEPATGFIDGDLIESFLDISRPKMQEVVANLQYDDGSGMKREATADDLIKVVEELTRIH

SMILES: O=C1CCC(N2Cc3cc(CNC(=O)C(F)(F)c4ccc(Cl)cc4)ccc3C2=O)C(=O)N1 (stereo not drawn) [Compound D, 2-(4-chlorophenyl)-N-((2-(2,6-dioxopiperidin-3-yl)-1-oxoisoindolin-5-yl)methyl)-2,2-difluoroacetamide]
- reduction of GSPT1 protein levels (GSPT1 [1]; HL-60, 100 nM Compound D, 4 hours): greater than 800
- reduction of GSPT1 (GSPT1 [1]; HL-60, >30 nM Compound D, 8 hours): complete reduction
- induction of ATF3 mRNA level (ATF3): approximately 100 fold
- EC50 (ML-2 cells; ML-2, 24 hr): 0.062 µM
- EC50 (ML-2 cells; ML-2, 48 hr): 0.031 µM
- EC50 (ML-2 cells; ML-2, 72 hr): 0.021 µM
- EC50 (ML-2 cells; ML-2, 96 hr): 0.025 µM
- Average Percent Increase in Apoptosis at 123 nM Compound D, Apoptosis (12 hr) (ML-2 cells; ML-2, 123 nM, 12 hr): 2%
- Average Percent Increase in Apoptosis at 123 nM Compound D, Apoptosis (24 hr) (ML-2 cells; ML-2, 123 nM, 24 hr): 17%
- Average Percent Increase in Apoptosis at 123 nM Compound D, Apoptosis (48 hr) (ML-2 cells; ML-2, 123 nM, 48 hr): 51%
- Percent Reduction at 100 nM Compound D GSPTI (8 hr) (GSPT1 [2]; 100 nM, 8 hr, change not concentration-dependent at the 8-hour time point): 39^a %
- GSPT1 reduction (GSPT1 [2]; 300 nM Compound D, 8 hours): 18%
